In data set [1] the test system is F. hepatica newly excysted juveniles (NEJs). Description: Newly excysted juveniles (NEJs) drug screen. Particulars: 10 μM, 72 h; higher score indicates lower worm activity. Set-up: scale not given here. The data set is classed as cell-based, Fasciola hepatica. The protocol:
Newly Excysted Juveniles (NEJs) Drug Screen
F. hepatica (Italian strain) metacercariae were obtained from Ridgeway Research, Gloucestershire, UK and stored at 4° C. Newly excysted juveniles (NEJs) from metacercariae were produced based on an optimisation introduced to the excystment method published by Dixon et al. and Wilson et al (Dixon, K. E., The physiology of excystment of the metacercaria of Fasciola hepática L. Parasitology, 1966, 56, 431-456.; Wilson, L. R., Good, R. T., Panaccio, M., Wijffels, G. L., Sandeman, R. M., Spithill, T. W, Fasciola hepatica: Characterization and Cloning of the Major Cathepsin B Protease Secreted by Newly Excysted Juvenile Liver Fluke. Experimental Parasitology 1998, 88, 85-94).
After excystment, NEJs were distributed into a 24 well tissue culture plate at a density of 25 parasites per well containing 1 mL of pre-warmed NEJs culture media. Compounds were added to respective wells and NEJ/compound co-cultures were incubated at 37° C. in an atmosphere containing 5% CO2 for 72 hours at a final concentration of 10 μM.
F. hepatica NEJs (25 per well) were incubated with the three compounds at a concentration of 10 μM (in 0.1% DMSO) and cultured for 72 hrs at 37° C. in an atmosphere containing 5% CO2. Control wells (25 NEJs per well) included those containing 0.1% DMSO (solvent) and RMPI (media) as negative controls or 10 μM Triclabendazole (0.1% DMSO, as positive control, labelled “Tbz” (Comp. 3). After 72 hrs, all NEJs were scored for phenotype and motility metrics. For each treatment, an average of both phenotype and motility score was calculated based on the individual parasite scores (across two independent replicates), wherein a higher score indicates lower worm activity. SD is reported on the bar chart.

The test system of data set [2] is E. coli ATCC 25922. Briefly: In vitro antibacterial activity. The format is cell-based. Particulars: Escherichia coli, ATCC25922.
Data set [3] relates to B. cereus. Description: In vitro antibacterial activity. Particulars: Bacillus cereus. The data set is classed as cell-based.
Data set [4] deals with MRSA ATCC 33591. Briefly: In vitro antibacterial activity. Particulars: Staphylococcus aureus. The format is cell-based.
The subject of data set [5] is S. mansoni schistosomula. Description: 72 hours schistosomula drug screen. The format is cell-based, Schistosoma mansoni. The conditions noted are these: for Selectivity Index Schistosomula: HepG2 CC50 over schistosomula EC50; for EC50: Schistosoma mansoni. The protocol: Biological Screening 72 Hours Schistosomula Drug Screen […] G. Colley, […], Schistosoma mansoni: simplified method for the production of schistosomules., Exp. Parasitol. 35 (1974) 44-51. Newly transformed schistosomula were prepared for 72 hour high throughput screening (HTS) in 384-well black-sided microtiter plates (Perkin Elmer, MA, USA) as described in M. Nur-e-alam, M. Yousaf, […]. Bari, H. A. Ghabbour, […]. Ho, A. J. […], Neoclerodane Diterpenoids from […], Teucrium […]. Nat. […] The data obtained in this manner is shown in Table 1 in the columns labelled “Phenotype”, “Motility” and “Schistosomula average”.

Data set [6] deals with Pseudomonas aeruginosa ATCC 27853. Description: In vitro antibacterial activity. The data set is classed as cell-based. The conditions noted are these: ATCC27853.
The subject of data set [7] is M. smegmatis mc^2 15 ATCC 700084. Description: In vitro antibacterial activity. The conditions noted are these: Mycolicibacterium smegmatis, ATCC700084. The format is cell-based, Mycobacterium smegmatis.
Data set [8] deals with MRSA USA 300. Briefly: In vitro antibacterial activity. The data set is classed as cell-based. Particulars: Staphylococcus aureus.
For data set [9], the system named is S. mansoni adult worms. Description: Adult worm drug screen (WHO scoring, WormassayGP2). The conditions noted are these: for Selectivity Index Adult: HepG2 CC50 over adult worm EC50; for EC50: Schistosoma mansoni, adult worms. The data set is classed as cell-based, Schistosoma mansoni. The text has this:
Mice (MF-1 mice, Harlan, UK), infected 7 weeks previously with 180 cercaria, were euthanised with an intraperitoneal injection of phenobarbital/heparin solution. Adult worms were recovered by perfusion of the portal system and subjected to drug screening as previously described in Padalino G, Ferla S, Brancale A, Chalmers I W, Hoffmann K F. Int J Parasitol Drugs Drug Resist. 2018 December; 8(3):559-570; in Whiteland H L, Chakroborty A, Forde-Thomas J E, Crusco A, Cookson A, Hollinshead J, Fenn C A, Bartholomew B, Holdsworth P A, Fisher M, Nash R J, Hoffmann K F. Int J Parasitol Drugs Drug Resist. 2018 December; 8(3):465-474; and in Crusco A, Bordoni C, Chakroborty A, Whatley K C L, Whiteland H, Westwell A D, Hoffmann K F. Eur J Med Chem. 2018 May 25; 152:87-100. The data obtained in this manner is shown in Table 1 in the columns labelled “Adult worm”.
Regarding the quantification of drug treatment on adult worms (e.g. decreased activity, paralysis or sluggishness), two different approaches were used, as described below. Where egg deposition was noticed, eggs were removed and counted using a Sedgewick rafter slide.
Adult worms were scored using the standardized microscopic WHO-TDR scoring system previously described by Ramirez, B., Bickle, Q., Yousif, F., Fakorede, F., Mouries, M.-A., Nwaka, S. in Schistosomes: Challenges in compound screening, Expert Opin Drug Discov. 2007 October; 2(s1): S53-61. This scoring system (0-4) identifies changes in worm movement and is defined according to the following scoring matrix: 0=no movement, 1=no movement with visible gut peristalsis, 2=minimal movement (occasional movement from anterior or posterior end of the worm), 3=slow continuous movement and 4=normal movement.
A digital image processing-based system was also used to assess parasite motility after drug treatment and is a modification of methods previously described by Marcellino C., Gut, J., Lim, K., Singh R., McKerrow, L. and Sakanari, J. WormAssay: a novel computer application for whole-plate motion-based screening of macroscopic parasites. PLoS Negl Trop Dis. 2012 January:6(1):e1494. This allowed for objective verification of the WHO method described above. The data obtained with this quantification method is shown in Table 1 in the columns labelled “Adult worm”.

For data set [10], the system named is S. aureus ATCC 29213. Briefly: In vitro antibacterial activity. The format is cell-based. Particulars: Staphylococcus aureus, ATCC29213.
Data set [11] relates to MRSA EM RSA. Briefly: In vitro antibacterial activity. The data set is classed as cell-based. Particulars: Staphylococcus aureus. The text has this:
In vitro Determination of Antibacterial Activity
Scientific Reports 8 (1), 2018. Bacterial strains of Enterococcus faecalis—ATCC 29212, NCTC 12201, ATCC 51299; Streptococcus pneumoniae—ATCC 49619, 18778, 21394, 21395; Haemophilus influenza—ATCC 49766, 18391, 17428; Staphylococcus aureus—NCTC 12493, ATCC BAA-077, ATCC 700698, 11051; used for testing the compounds, as previously described in “Clinical laboratory testing and in vitro diagnostics test systems—Susceptibility testing of infectious agents and evaluation of performance of antimicrobial susceptibility devices—Part 1: Reference methods for testing the in vitro activity of antimicrobial agentes against bacteria involved in infectious diseases, ISO/FDIS 20776-1:2006(E). All the procedures were carried out in a biosafety containment level 2.

The subject of data set [12] is S. epidermidis NTCT11077. Briefly: In vitro antibacterial activity. The format is cell-based. Particulars: Staphylococcus epidermidis.
Data set [13] can be described thus: Semi thermodynamic solubility. The conditions noted are these: thermodynamic from solid.
The mark [14] stands for this setting: E. coli ATCC 25922, read-out: MIC90.
Where [15] appears, read: average of phenotype and motility, read-out: EC50 Schistosomula average.
[16] abbreviates: schistosomula, 72 hour culture, read-out: EC50 Motility.
The mark [17] stands for this setting: M. smegmatis mc^2 15 ATCC 700084, read-out: MIC90.
[18] abbreviates: schistosomula, 72 hour culture, read-out: EC50 Phenotype.

Converted amounts (≈) assume the structure as drawn. Like-named read-outs stand apart in the source and are kept apart here. Bounds are passed on as bounds.

As to `CSc1nc2cc(Cl)c(Oc3cccc(Cl)c3Cl)cc2[nH]1` [Comp. 3, triclabendazole, reference compound], in [1], the “Motility (M) Mean score” value is given as 4.72 and the “Phenotype (P) Mean score” value was 4.72.

By MIC90 is commonly meant the lowest concentration that inhibits either 90% of growth or 90% of the strains tested, depending on the study. As a reminder, the EC50 is the midpoint of the concentration-response curve. For the compound `O=[N+]([O-])c1ccc2nc(Nc3cccc(C(F)(F)F)c3)c(Nc3cccc(C(F)(F)F)c3)nc2c1` [Compound 10, 6-nitro-N^2, N^3-bis(3-(trifluoromethyl)phenyl)quinoxaline-2,3-diamine], the MIC90 was over 125 µg/mL in [2] (setting [14]); over 125 µg/mL in data set [3] (B. cereus, read-out: MIC90); over 125 µg/mL in [4]; over 125 µg/mL in data set [6] (Pseudomonas aeruginosa ATCC 27853, read-out: MIC90); over 125 µg/mL in data set [7] (setting [17]); over 125 µg/mL in [8]. The MIC90 in data set [10] was 7.81 µg/mL (≈ 15.8 µM); in [11], over 125 µg/mL; in data set [12] (S. epidermidis NTCT11077, read-out: MIC90), over 125 µg/mL. Also, the “Motility (M) Mean score” value in data set [1] came to 2.71. Further, in data set [1], the “Phenotype (P) Mean score” value is recorded as 2.76. For the same compound, in data set [5], the “Selectivity Index Schistosomula” value worked out at 12. Besides, the EC50 in [5] (setting [15]) is 480 nM; in [5] (setting [16]) it was 570 nM; in [9], 7 nM. Moreover, the “Selectivity Index Adult” value in data set [9] came out at 836.

For `O=[N+]([O-])c1ccc2nc(NCc3ccccc3)c(NCc3ccccc3)nc2c1` [Compound 13, N^2, N^3-dibenzyl-6-nitroquinoxaline-2,3-diamine], the MIC90 in [2], in [7] and in [10] was over 125 µg/mL each time. Moreover, the “Motility (M) Mean score” value in data set [1] was found to be 3.14. Moreover, the “Phenotype (P) Mean score” value in data set [1] worked out at 3.14. For the same compound, the “Selectivity Index Schistosomula” value in data set [5] was 4. In addition, the values for the EC50 in data set [5] (setting [15]), in data set [5] (setting [16]) and in data set [5] (setting [18]) were 2920 nM, 2640 nM and 3190 nM, respectively.

For the compound `O=[N+]([O-])c1ccc2nc(NCCc3ccccc3)c(NCCc3ccccc3)nc2c1` [Compound 14, 6-nitro-N^2, N^3-diphenethylquinoxaline-2,3-diamine], the MIC90 in data set [2] (setting [14]) was over 125 µg/mL; in data set [7] (setting [17]), 31.2 µg/mL (≈ 75.6 µM); in data set [10] (S. aureus ATCC 29213, read-out: MIC90), over 125 µg/mL. For the same compound, the “Motility (M) Mean score” value in data set [1] was 4.00. In [1], the “Phenotype (P) Mean score” value worked out at 4.27. For the same compound, the EC50 in data set [5] (setting [16]) was found to be 1470 nM; in data set [5] (setting [18]) it was 2200 nM.

`Nc1ccc2nc(Nc3ccc(Cl)c(Cl)c3)c(Nc3ccc(Cl)c(Cl)c3)nc2c1` [Compound 15, N^2, N^3-bis(3,4-dichlorophenyl)quinoxaline-2,3,6-triamine]: in data set [1], the “Motility (M) Mean score” value is listed as 4.86 and the “Phenotype (P) Mean score” value was 5.09. The “Selectivity Index Schistosomula” value in data set [5] is given as 7. Further, the EC50 in [5] (setting [16]) turned out to be 3250 nM. Besides, the EC50 in data set [5] (setting [18]) amounted to 3510 nM.

Consider `Clc1ccc(Nc2nc3ccc(N4CCCC4)cc3nc2Nc2ccc(Cl)c(Cl)c2)cc1Cl` [Compound 16, N^2, N^3-bis(3,4-dichlorophenyl)-6-(pyrrolidin-1-yl)quinoxaline-2,3-diamine], for which the MIC90 in data set [2] was over 125 µg/mL; in [3] it was over 125 µg/mL; in [4] it was 31.2 µg/mL (≈ 60.2 µM); in data set [6] (Pseudomonas aeruginosa), over 125 µg/mL; in data set [7] it was over 125 µg/mL; in [8], 62.5 µg/mL (≈ 120 µM). Also, the MIC90 is 15.6 µg/mL (≈ 30.1 µM) in data set [10], 62.5 µg/mL (≈ 120 µM) in [11] and over 125 µg/mL in [12] (NTCT11077). Further, in data set [1], the “Motility (M) Mean score” value turned out to be 2.84. In addition, the “Phenotype (P) Mean score” value in data set [1] is on record as 2.95. In addition, the EC50 in [5] (setting [16]) and in data set [5] (setting [18]) was over 10000 nM throughout.

Regarding `CC(=O)Nc1ccc2nc(Nc3ccc(Cl)c(Cl)c3)c(Nc3ccc(Cl)c(Cl)c3)nc2c1` [Compound 17, N-(2,3-bis((3,4-dichlorophenyl)amino)quinoxalin-6-yl)acetamide], the MIC90 in [2] was over 125 µg/mL; in [3], under 62.5 µg/mL; in [6] (Pseudomonas aeruginosa) it was over 125 µg/mL; in data set [7], over 125 µg/mL; in data set [10] it was 62.5 µg/mL (≈ 123 µM); in data set [12] (NTCT11077) it was under 62.5 µg/mL. Further, in data set [5], the “Selectivity Index Schistosomula” value is on record as 4. For the same compound, the EC50 in data set [5] (setting [15]) is 2350 nM; in data set [5] (setting [16]), 2090 nM; in [5] (setting [18]), 2600 nM; in data set [9] it was 700 nM. Further, the “Selectivity Index Adult” value in data set [9] amounted to 12.

Usually thermodynamic solubility stands for solubility found after equilibrating the solid with the medium. On to `COC(=O)C1=C(C)NC(C)=C(C(=O)OCCN(C)Cc2ccccc2)C1c1cccc([N+](=O)[O-])c1` (centres unmarked) [Nicardipine, reference compound], for which the solubility (thermodynamic) in data set [13] was 35.4 µM (≈ 17 µg/mL).

The values are drawn from US12503448B2, “Antibacterial and antiparasitic quinoxaline-2,3-diamine derivatives” (University College Cardiff Consultants Limited, priority 2019, dated 2025).
